The test system of this experiment is recombinant NL4-3 virus (NLRluc, Renilla luciferase in nef, Gag P373S). The experiment can be described thus: HIV cell culture assay (Renilla luciferase reporter virus in MT-2 cells). The format is cell-based. The conditions noted are these: Renilla. On the procedure:
MT-2 cells and 293T cells were obtained from the NIH AIDS Research and Reference Reagent Program. MT-2 cells were propagated in RPMI 1640 media supplemented with 10% heat inactivated fetal bovine serum, […]. The 293T cells were propagated in DMEM media supplemented with 10% heat inactivated fetal bovine serum (FBS), 100 units/ml penicillin G and 100 μg/ml streptomycin. The proviral DNA clone of NL4-3 was obtained from the NIH AIDS Research and Reference Reagent Program. A recombinant NL4-3 virus, in which a section of the nef gene from NL4-3 was replaced with the Renilla luciferase gene, was used as a reference virus. In addition, residue Gag P373 was converted to P373S. Briefly, the recombinant virus was prepared by transfection of the altered proviral clone of NL4-3. Transfections were performed in 293T cells using LipofectAMINE PLUS from Invitrogen (Carlsbad, Calif.), according to manufacturer's instruction. The virus was titered in MT-2 cells using luciferase enzyme activity as a marker. Luciferase was quantitated using the Dual Luciferase kit from Promega (Madison, Wis.), with modifications to the manufacturer's protocol. The diluted Passive Lysis solution was pre-mixed with the re-suspended Luciferase Assay Reagent and the re-suspended Stop & Glo Substrate (2:1:1 ratio). Fifty (50) μL of the mixture was added to each aspirated well on assay plates and luciferase activity was measured immediately on a Wallac TriLux (Perkin-Elmer). Antiviral activities of inhibitors toward the recombinant virus were quantified by measuring luciferase activity in cells infected for 4-5 days with NLRluc recombinants in the presence serial dilutions of the inhibitor. Table 16 is the key for the data in Table 17.
(In a reporter assay the amount or activity of a reporter protein is the signal.)

Setting [1] is: NL43, read-out: 10% FBS EC50, 10% FBS, numeric values.
[2] abbreviates: NL43, read-out: 10% FBS EC50, 10% FBS, class symbols A/B/C.

Where two headings read alike, the source gives them in different places.

On to `CN1CCN(c2ccc(C(=O)N3CC=C4C(C)(C)C(c5ccc(C(=O)O)cc5)=CC[C@]4(C)C3)cc2)CC1` [Example 30], for which, under setting [1], the EC50 came out at 2270 nM.

Turning to `CC(C)(C)OC(=O)N1CCC(C)(C(=O)N2CC=C3C(C)(C)C(c4ccc(C(=O)O)cc4)=CC[C@]3(C)C2)CC1` [Example 48], the EC50 under setting [1] came out at 270 nM.

Take `CC1(C)C(c2ccc(C(=O)O)cc2)=CC[C@]2(C)CN(C(=O)C(=O)O)CC=C12` [Example 10]: under setting [2], the EC50 was over 3000 nM.

Turning to `CC1(C)C(c2ccc(C(=O)O)cc2)=CC[C@]2(C)CN(C(=O)c3ccccc3C(N)=O)CC=C12` [Example 20], the EC50 under setting [2] was over 3000 nM.

On to `CC1(C)C(c2ccc(C(=O)O)cc2)=CC[C@]2(C)CN(C(=O)c3ccccc3-c3ccc(C#N)cc3)CC=C12` [Example A71], for which, under setting [1], the EC50 is 1300 nM.

Regarding `Cc1cc(Cl)cc2[nH]c(-c3ccccc3C(=O)N3CC=C4C(C)(C)C(c5ccc(C(=O)O)cc5)=CC[C@]4(C)C3)nc12` [Example A271], under setting [2], the EC50 was under 500 nM.

Consider `CN1CCC2C(C)(C)[C@H](c3ccc(C(=O)O)cc3)CC[C@]2(C)C1` (single isomer, unassigned) [Example 90], for which the EC50 under setting [2] was over 3000 nM.

In the case of `CC1(C)C(c2ccc(C(=O)O)cc2)=CC[C@]2(C)CN(C(=O)c3ccc4cc[nH]c4c3)CC=C12` [Example 39], the EC50 under setting [1] is 1490 nM.

In the case of `CC1(C)C(c2ccc(C(=O)O)cc2)=CC[C@]2(C)CN(C3CCC(CN)(c4ccccc4)CC3)CC=C12` (stereo partly drawn) [Example C3, (S)-4-(2-(4-(aminomethyl)-4-phenylcyclohexyl)-5,5,8a-trimethyl-1,2,3,5,8,8a-hexahydroisoquinolin-6-yl)benzoic acid], the EC50 under setting [1] came to 150 nM.

Consider `CC(C)C[C@@H](NC(=O)OC(C)(C)C)C(=O)N1CCC(C(=O)N2CC=C3C(C)(C)C(c4ccc(C(=O)O)cc4)=CC[C@]3(C)C2)(c2ccccc2)CC1` [Example 92, 4-((S)-2-(1-((tert-butoxycarbonyl)-D-leucyl)-4-phenylpiperidine-4-carbonyl)-5,5,8a-trimethyl-1,2,3,5,8,8a-hexahydroisoquinolin-6-yl)benzoic acid], for which the EC50 under setting [1] was determined as 8 nM.

As to `CC1(C)C(c2ccc(C(=O)O)cc2)=CC[C@]2(C)CN(C(=O)c3ccccc3-c3nc4ccc(Cl)cc4o3)CC=C12` [Example A318], the EC50 under setting [2] was under 500 nM.

Take `CC1(C)C(c2ccc(C(=O)O)cc2)=CC[C@]2(C)CN(c3cc(C(=O)O)cc([N+](=O)[O-])c3)CC=C12` [Example B15]: the EC50 under setting [2] is over 3000 nM.

As to `CC1(C)C(c2ccc(C(=O)O)cc2)=CC[C@]2(C)CN(C(=O)c3ccccc3-c3nc4ccccc4n3CCN3CCS(=O)(=O)CC3)CC=C12` [Example 81], the EC50 under setting [2] was in the range of 500 to 3000 nM.

For the molecule `CC(C)(C)OC(=O)N[C@H](C(=O)N1CCC(C(=O)N2CC=C3C(C)(C)C(c4ccc(C(=O)O)cc4)=CC[C@]3(C)C2)(c2ccccc2)CC1)C(C)(C)C` [Example A219], the EC50 under setting [1] was determined as 150 nM.

For the molecule `CC1(C)C(c2ccc(C(=O)O)cc2)=CC[C@]2(C)CN(C(=O)C(=O)N3CC=C4C(C)(C)C(c5ccc(C(=O)O)cc5)=CC[C@]4(C)C3)CC=C12` [Example 9], under setting [2], the EC50 was over 3000 nM.

Turning to `CN1Cc2c(ccc3nc(-c4ccccc4C(=O)N4CC=C5C(C)(C)C(c6ccc(C(=O)O)cc6)=CC[C@]5(C)C4)[nH]c23)C(c2ccccc2)C1` (some centres unmarked) [Example 100], the EC50 under setting [1] turned out to be 2810 nM.

Turning to `CC1(C)C(c2ccc(C(=O)O)cc2)=CC[C@]2(C)CN(C(=O)C3(c4ccccc4)CCN(S(=O)(=O)CCCCl)CC3)CC=C12` [Example A197], the EC50 under setting [1] was determined as 147 nM.

Consider `CC1(C)C(c2ccc(C(=O)O)cc2)=CC[C@]2(C)CN(C(=O)[C@H]3CC[C@H](N)CC3)CC=C12` [Example 52], for which the EC50 under setting [1] came to 3620 nM.

`CC1(C)C(c2ccc(C(=O)O)cc2)=CC[C@]2(C)CN(c3ccc(-c4nnn(CCN5CCS(=O)(=O)CC5)n4)cc3)CC=C12` [Example B5]: the EC50 under setting [2] was over 3000 nM.

As to `CC1(C)C(c2ccc(C(=O)O)cc2)=CC[C@]2(C)CN(C(=O)c3ccccc3C(=O)N3CCS(=O)(=O)CC3)CC=C12` [Example 67], the EC50 under setting [2] was over 3000 nM.

On to `Cn1c(-c2ccccc2C(=O)N2CC=C3C(C)(C)C(c4ccc(C(=O)O)cc4)=CC[C@]3(C)C2)nc2ccccc21` [Example A274], for which the EC50 under setting [2] was over 3000 nM.

`CC1(C)C(c2ccc(C(=O)O)cc2)=CC[C@]2(C)CN(C(=O)c3ccc(CN4CCS(=O)(=O)CC4)cc3)CC=C12` [Example 31]: the EC50 under setting [2] was over 3000 nM.

Consider `CC1(C)C(c2ccc(C(=O)O)cc2)=CC[C@]2(C)CN(C(=O)c3ccc(F)c(F)c3)CC=C12` [Example 7], for which the EC50 under setting [2] was over 3000 nM.

`CC1(C)C(c2ccc(C(=O)O)cc2)=CC[C@]2(C)CN(C(=O)c3ccc(C(=O)O)cc3)CC=C12` [Example 13]: under setting [2], the EC50 is over 3000 nM.

Consider `COc1ccc(OC)c2[nH]c(-c3ccccc3C(=O)N3CC=C4C(C)(C)C(c5ccc(C(=O)O)cc5)=CC[C@]4(C)C3)nc12` [Example A299], for which the EC50 under setting [2] is under 500 nM.

In the case of `CC1(C)C(c2ccc(C(=O)O)cc2)=CC[C@]2(C)CN(C(=O)C(=O)N3CCC[C@H]3C(=O)NCCCN3CCS(=O)(=O)CC3)CC[C@@H]12` [Example C2, 4-((4aS,8aS)-2-(2-((S)-2-((3-(1,1-dioxidothiomorpholino)propyl)carbamoyl)pyrrolidin-1-yl)-2-oxoacetyl)-5,5,8a-trimethyl-1,2,3,4,4a,5,8,8a-octahydroisoquinolin-6-yl)benzoic acid], under setting [2], the EC50 is over 3000 nM.

For the molecule `CC1(C)C(c2ccc(C(=O)O)cc2)=CC[C@]2(C)CN(c3cc(F)cc(-c4nnn(CCN5CCS(=O)(=O)CC5)n4)c3)CC=C12` [Example B8], the EC50 under setting [2] was under 500 nM.

On to `CC1(C)C(c2ccc(C(=O)O)cc2)=CC[C@]2(C)CN(C(=O)c3ccccc3-c3nc4cc(C(=O)c5ccccc5)ccc4[nH]3)CC=C12` [Example A281], for which the EC50 under setting [1] is 950 nM.

Take `CC1(C)C(c2ccc(C(=O)O)cc2)=CC[C@]2(C)CN(C(=O)C3(Cc4ccccc4)CCNCC3)CC=C12` [Example 55]: under setting [1], the EC50 was found to be 3040 nM.

Take `CC1(C)C(c2ccc(C(=O)O)cc2)=CC[C@]2(C)CN(C(=O)c3ccc4[nH]nnc4c3)CC=C12` [Example 42]: under setting [2], the EC50 is over 3000 nM.

In the case of `CC1(C)C(c2ccc(C(=O)O)cc2)=CC[C@]2(C)CN(C(=O)c3ccc4[nH]ccc4c3)CC=C12` [Example 43], the EC50 under setting [2] is over 3000 nM.

As to `CC1(C)C(c2ccc(C(=O)O)cc2)=CC[C@]2(C)CN(C(=O)c3ccc(C(=O)N4CCS(=O)(=O)CC4)cc3)CC=C12` [Example 69], under setting [2], the EC50 is over 3000 nM.

Take `CC1(C)C(c2ccc(C(=O)O)cc2)=CC[C@]2(C)CN(C(=O)c3cccc(N4CCOCC4)c3)CC=C12` [Example 27]: the EC50 under setting [2] is over 3000 nM.

Consider `CC1(C)C(c2ccc(C(=O)O)cc2)=CC[C@]2(C)CN(C(=O)c3ccccc3N3CCOCC3)CC=C12` [Example 26], for which the EC50 under setting [1] was found to be 630 nM.

`CC1(C)C(c2ccc(C(=O)O)cc2)=CC[C@]2(C)CN(C(=O)c3cccc(C(=O)N4CC=C5C(C)(C)C(c6ccc(C(=O)O)cc6)=CC[C@]5(C)C4)n3)CC=C12` [Example 61]: the EC50 under setting [2] was over 3000 nM.

`CN(C)CC(=O)N1CC=C2C(C)(C)C(c3ccc(C(=O)O)cc3)=CC[C@]2(C)C1` [Example 35]: the EC50 under setting [2] was over 3000 nM.

Take `CC(C)(C)OC(=O)N1CSC[C@@H]1C(=O)N1CCC(C(=O)N2CC=C3C(C)(C)C(c4ccc(C(=O)O)cc4)=CC[C@]3(C)C2)(c2ccccc2)CC1` [Example A204]: under setting [1], the EC50 is 309 nM.

For `CC1(C)C(c2ccc(C(=O)O)cc2)=CC[C@]2(C)CN(C(=O)C3(c4ccccc4)CCN(C(=O)CN4CCS(=O)(=O)CC4)CC3)CC=C12` [Example 94], the EC50 under setting [1] turned out to be 1370 nM.

On to `CC1(C)C(c2ccc(C(=O)O)cc2)=CC[C@]2(C)CN(C(=O)c3c(-c4ccccc4)nc4ccccn34)CC=C12` [Example A91], for which the EC50 under setting [1] worked out at 711 nM.

For the molecule `COCCn1c(-c2ccccc2C(=O)N2CC=C3C(C)(C)C(c4ccc(C(=O)O)cc4)=CC[C@]3(C)C2)nc2cc(C(=O)O)ccc21` [Example A296], the EC50 under setting [2] was over 3000 nM.

Regarding `CC1(C)C(c2ccc(C(=O)O)cc2)=CC[C@]2(C)CN(C(=O)c3ccccc3-c3nc4cc(F)c(F)cc4[nH]3)CC=C12` [Example A267], the EC50 under setting [2] fell in the range of 500 to 3000 nM.

`CC1(C)C(c2ccc(C(=O)O)cc2)=CC[C@]2(C)CN(C(=O)c3ccccc3-c3nc4c(Cl)cccc4[nH]3)CC=C12` [Example A270]: under setting [1], the EC50 is 14 nM.

Take `COc1cccc2oc(-c3ccccc3C(=O)N3CC=C4C(C)(C)C(c5ccc(C(=O)O)cc5)=CC[C@]4(C)C3)nc12` [Example A311]: under setting [1], the EC50 was 218 nM.

For the molecule `CC1(C)C(c2ccc(C(=O)O)cc2)=CC[C@]2(C)CN(C(=O)c3ccccc3-c3nc4cc(Br)ccc4o3)CC=C12` [Example A315], the EC50 under setting [1] turned out to be 127 nM.

Turning to `CC1(C)C(c2ccc(C(=O)O)cc2)=CC[C@]2(C)CN(C(=O)c3ccc(F)cc3F)CC=C12` [Example 5], the EC50 under setting [2] was over 3000 nM.

In the case of `CC1(C)C(c2ccc(C(=O)O)cc2)=CC[C@]2(C)CN(C(=O)c3cccc(F)c3)CC=C12` [Example 2], the EC50 under setting [2] was over 3000 nM.

Turning to `COc1ccc2nc(-c3ccccc3C(=O)N3CC=C4C(C)(C)C(c5ccc(C(=O)O)cc5)=CC[C@]4(C)C3)oc2c1` [Example A334], under setting [2], the EC50 was under 500 nM.
